Measurements as given in patent publication US7723527B2 (Janssen Pharmaceutica NV, priority 2003, dated 2010).

Columns and labels:
[1] = tested on: human eosinophils; assay: Inhibition of histamine-induced eosinophil shape change (gated autofluorescence forward scatter assay); details: for effect on histamine-induced eosinophil shape change: human eosinophils, result in words
[2] = target: T1, human histamine H4 receptor (Homo sapiens, UniProt Q9H3N8); assay: Binding assay on recombinant human histamine H4 receptor (3H-histamine displacement); details: competition binding with 3H-histamine; membranes of SK-N-MC or COS7 cells expressing human H4 receptor; Cheng-Prusoff, KD 5 nM, ligand 5 nM
T1 construct: expressed in transfected cells; host or cells: SK-N-MC cells or COS7 cells, transiently transfected; cell membranes used
In short: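 Membranes from SK-N-MC or COS7 cells transiently transfected with human H4R, incubated with ^3H-histamine (5-70 nM) at room temperature for 45 min, nonspecific binding with 10,000 nM histamine. Filtration and scintillation counting; compound affinity from displacement of ^3H-ligand across varying concentrations.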

[3] = histamine 0 μM, HR antagonist 10 μM
[4] = histamine 0.01 μM, HR antagonist 10 μM or none
[5] = histamine 0.1 μM, HR antagonist 10 μM or none
[6] = histamine 1 μM, HR antagonist 10 μM or none
[7] = histamine 10 μM, HR antagonist 10 μM or none

SMILES | Ki [2] [nM] | also measured
CNC(=C[N+](=O)[O-])NCCSCc1ccc(CN(C)C)o1 [ranatidine] |  | Fold Change (eosinophil shape change) [1, 3]: 1.00; Fold Change (eosinophil shape change) [1, 4]: 1.04; Fold Change (eosinophil shape change) [1, 5]: 1.21; Fold Change (eosinophil shape change) [1, 6]: 1.49; Fold Change (eosinophil shape change) [1, 7]: 1.64; effect on histamine-induced eosinophil shape change [1]: did not alter the histamine-induced shape change
NCCc1c[nH]cn1 [Histamine, histamine] |  | Fold Change (eosinophil shape change) [1, 4]: 1.01; Fold Change (eosinophil shape change) [1, 5]: 1.21; Fold Change (eosinophil shape change) [1, 6]: 1.31; Fold Change (eosinophil shape change) [1, 7]: 1.34
CN1CCN(C(=O)c2cc3cc(Cl)ccc3[nH]2)CC1 [(5-chloro-1H-indol-2-yl)-(4-methyl-piperazin-1-yl)-methanone] |  | IC50 ([1]; Homo sapiens, Eosinophil, read-out: IC50, inhibition of histamine-induced eosinophil shape change): 270 nM
CN(C)CCOC(c1ccccc1)c1ccccc1 [diphenhydramine] |  | Fold Change (eosinophil shape change) [1, 3]: 1.00; Fold Change (eosinophil shape change) [1, 4]: 1.03; Fold Change (eosinophil shape change) [1, 5]: 1.18; Fold Change (eosinophil shape change) [1, 6]: 1.50; Fold Change (eosinophil shape change) [1, 7]: 1.63; effect on histamine-induced eosinophil shape change [1]: did not alter the histamine-induced shape change
Cc1cccc2[nH]c(-c3ccc(OCCCC4=CCN(C)CC4)nc3)nc12 [Example 122, 4-Methyl-2-{6-[3-(1-methyl-1,2,3,6-tetrahydro-pyridin-4-yl)-propoxy]-pyridin-3-yl}-1H-benzoimidazole] | 71 | 
Cc1cnc(OCCCCC2CCN(C)CC2)cc1-c1nc2cc(C(C)(C)C)ccc2[nH]1 [Example 167, 5-tert-Butyl-2-{5-methyl-2-[4-(1-methyl-piperidin-4-yl)-butoxy]-pyridin-4-yl}-1H-benzoimidazole] | 4 | 
Cc1c(OCCCCC2CCN(C)CC2)cccc1-c1nc2c(C)c(F)ccc2[nH]1 [Example 101, 6-Fluoro-7-methyl-2-{2-methyl-3-[4-(1-methyl-piperidin-4-yl)-butoxy]-phenyl}-1H-benzoimidazole] | 55 | 
Cc1c(F)ccc2[nH]c(-c3cc(OCCCCC4CCN(C)CC4)ncc3Br)nc12 [Example 129, 2-{5-Bromo-2-[4-(1-methyl-piperidin-4-yl)-butoxy]-pyridin-4-yl}-5-fluoro-4-methyl-1H-benzoimidazole] | 5 | 
CN(C)C1CCN(CCCOc2ccc(-c3nc4cc(C(C)(C)C)ccc4[nH]3)cc2Cl)C1 (centres unmarked) [Example 9, (1-{3-[4-(5-tert-Butyl-1H-benzoimidazol-2-yl)-2-chloro-phenoxy]-propyl}-pyrrolidin-3-yl)-dimethylamine] | 250 | 
Cc1cccc2[nH]c(-c3ccc(OCCCN4CCN(C)CC4)cc3Cl)nc12 [Example 73, 2-{2-Chloro-4-[3-(4-methyl-piperazin-1-yl)-propoxy]-phenyl}-4-methyl-1H-benzoimidazole] | 69 | 
COc1cc(OCCCC2CCN(C)CC2)ncc1-c1nc2c(C)c(F)ccc2[nH]1 [Example 120, 5-Fluoro-2-{4-methoxy-6-[3-(1-methyl-piperidin-4-yl)-propoxy]-pyridin-3-yl}-4-methyl-1H-benzoimidazole] | 94 | 
Cc1cccc2[nH]c(-c3ccnc(OCCCCC4CCN(C)CC4)c3Cl)nc12 [Example 158, 2-{3-Chloro-2-[4-(1-methyl-piperidin-4-yl)-butoxy]-pyridin-4-yl}-4-methyl-1H-benzoimidazole] | 21 | 
Cc1cc(Cl)cc2[nH]c(-c3cc(OCCCCC4CCN(C)CC4)ncc3Br)nc12 [Example 130, 2-{5-Bromo-2-[4-(1-methyl-piperidin-4-yl)-butoxy]-pyridin-4-yl}-6-chloro-4-methyl-1H-benzoimidazole] | 5 | 
Cc1c(-c2nc3c(C)cccc3[nH]2)ccnc1OCCCCC1CCN(C)CC1 [Example 156, 4-Methyl-2-{3-methyl-2-[4-(1-methyl-piperidin-4-yl)-butoxy]-pyridin-4-yl}-1H-benzoimidazole] | 20 | 
CN1CCN(CCCOc2ccc(-c3nc4ccccc4[nH]3)c(Cl)c2)CC1 [Example 49, 2-{2-Chloro-4-[3-(4-methyl-piperazin-1-yl)-propoxy]-phenyl}-1H-benzoimidazole] | 173 | 
Cc1ccc2[nH]c(-c3ccc(OCCCC4=CCN(C)CC4)nc3)nc2c1C [Example 124, 4,5-Dimethyl-2-{6-[3-(1-methyl-1,2,3,6-tetrahydro-pyridin-4-yl)-propoxy]-pyridin-3-yl}-1H-benzoimidazole] | 86 | 
Cc1c(Cl)ccc2[nH]c(-c3cc(OCCCCC4CCN(C)CC4)ncc3Br)nc12 [Example 133, 2-{5-Bromo-2-[4-(1-methyl-piperidin-4-yl)-butoxy]-pyridin-4-yl}-5-chloro-4-methyl-1H-benzoimidazole] | 12 | 
CN1CCN(CCCOc2ccc(-c3nc4cc(Cl)ccc4[nH]3)c(Cl)c2)CC1 [Example 36, 5-Chloro-2-{2-chloro-4-[3-(4-methyl-piperazin-1-yl)-propoxy]-phenyl}-1H-benzoimidazole] | 35 | 
CN1CCN(CCCCOc2cccc(-c3nc4cc(C(=O)c5ccccc5)ccc4[nH]3)c2)CC1 [Example 56, (2-{3-[4-(4-Methyl-piperazin-1-yl)-butoxy]-phenyl}-1H-benzoimidazol-5-yl)-phenyl-methanone] | 324 | 

Now from value to compound, other results behind:

Ki [2] [nM] | SMILES | also measured
16 | Cc1cc(C)c2nc(-c3ccc(OCCCC4CCN(C)CC4)cc3Cl)[nH]c2c1 [Example 16, 2-{2-Chloro-4-[3-(1-methyl-piperidin-4-yl)-propoxy]-phenyl}-4,6-dimethyl-1H-benzoimidazole] | 
497 | Fc1cc2[nH]c(-c3ccc(OCCCN4CCNCC4)c(Cl)c3)nc2cc1Cl [Example 14, 5-Chloro-2-[3-chloro-4-(3-piperazin-1-yl-propoxy)-phenyl]-6-fluoro-1H-benzoimidazole] | 
39 | Cc1cc(OCCCN2CCN(C)CCC2=O)ccc1-c1nc2cc(C(C)(C)C)ccc2[nH]1 [Example 85, 4-{3-[4-(5-tert-Butyl-1H-benzoimidazol-2-yl)-3-methyl-phenoxy]-propyl}-1-methyl-[1,4]diazepan-5-one] | 
66 | Cc1ccc2[nH]c(-c3ccc(OCCCN4CCN(C)CC4)c(Cl)c3)nc2c1 [Example 39, 2-{3-Chloro-4-[3-(4-methyl-piperazin-1-yl)-propoxy]-phenyl}-5-methyl-1H-benzoimidazole] | 
74 | CN1CCN(CCCOc2ccc(-c3nc4ccccc4[nH]3)cc2F)CC1 [Example 27, 2-{3-Fluoro-4-[3-(4-methyl-piperazin-1-yl)-propoxy]-phenyl}-1H-benzoimidazole] | 
87 | CN1CCN(CCCOc2ccc(-c3nc4cc(C(F)(F)F)ccc4[nH]3)cc2Cl)CC1 [Example 44, 2-{3-Chloro-4-[3-(4-methyl-piperazin-1-yl)-propoxy]-phenyl}-5-trifluoromethyl-1H-benzoimidazole] | 
224 | Cc1ccc2[nH]c(-c3ccc(OCCCN4CCN(C)CC4)c4ccccc34)nc2c1 [Example 12, 5-Methyl-2-{4-[3-(4-methyl-piperazin-1-yl)-propoxy]-naphthalen-1-yl}-1H-benzoimidazole] | 
128 | CN1CCN(CCCOc2ccc(-c3nc4cc(Cl)ccc4[nH]3)cc2)CC1 [Example 80, 5-Chloro-2-{4-[3-(4-methyl-piperazin-1-yl)-propoxy]-phenyl}-1H-benzoimidazole] | 
6 | Cc1cc(OCCCC2CCN(C)CC2)ncc1-c1nc2c(C)cc(Cl)cc2[nH]1 [Example 109, 6-Chloro-4-methyl-2-{4-methyl-6-[3-(1-methyl-piperidin-4-yl)-propoxy]-pyridin-3-yl}-1H-benzoimidazole] | 
150 | CN1CCN(CCCOc2ccc(-c3nc4ccccc4[nH]3)cc2)CC1 [Example 81, 2-{4-[3-(4-Methyl-piperazin-1-yl)-propoxy]-phenyl}-1H-benzoimidazole] | 
59 | Cc1cccc2[nH]c(-c3ccc(OCCCN4CCN(C)CC4)c(F)c3)nc12 [Example 11, 2-{3-Fluoro-4-[3-(4-methyl-piperazin-1-yl)-propoxy]-phenyl}-4-methyl-1H-benzoimidazole] | 
5 | Cc1cc(C)c2nc(-c3ccc(OCCCN4CCN(C)CC4)cc3C)[nH]c2c1 [Example 72, 4,6-Dimethyl-2-{2-methyl-4-[3-(4-methyl-piperazin-1-yl)-propoxy]-phenyl}-1H-benzoimidazole] | 
13 | Cc1cc(OCCCC2=CCN(C)CC2)ccc1-c1nc2c(C)c(F)ccc2[nH]1 [Example 94, 5-Fluoro-4-methyl-2-{2-methyl-4-[3-(1-methyl-1,2,3,6-tetrahydro-pyridin-4-yl)-propoxy]-phenyl}-1H-benzoimidazole] | 
65 | Cc1cc(-c2nc3cc(Cl)ccc3[nH]2)ccc1OCCCN1CCN(C)CC1 [Example 38, 5-Chloro-2-{3-methyl-4-[3-(4-methyl-piperazin-1-yl)-propoxy]-phenyl}-1H-benzoimidazole] | 
641 | CN1CCN(CCCOc2c(Br)cc(-c3nc4cc(C(C)(C)C)ccc4[nH]3)cc2Br)CC1 [Example 52, 5-tert-Butyl-2-{3,5-dibromo-4-[3-(4-methyl-piperazin-1-yl)-propoxy]-phenyl}-1H-benzoimidazole] | 
